The record followed here is the NIST ThermoML archive (doi:10.1016/j.jct.2013.05.030).

± gives the expanded uncertainty stated by the source.

A short description of data set [1]: activity coefficient (dimensionless); of the first substance listed, at infinite dilution; xn = mol fraction of the nth substance listed. Conditions: 101 kPa, Liquid, Chromatography, x1 = 0.
For data set [2] the following is noted: 293.15 K; 101.33 kPa; Liquid; Vibrating tube method.

Turning to `C1CCCC1` [cyclopentane] + CCCCCCCCCCCCCC[P+](CCCCCC)(CCCCCC)CCCCCC.O=S(=O)([N-]S(=O)(=O)C(F)(F)F)C(F)(F)F, the activity coefficient is 0.687 ± 0.052 in data set [1] (313.15 K), 0.698 ± 0.053 in data set [1] (333.15 K), 0.713 ± 0.054 in data set [1] (353.15 K) and 0.721 ± 0.055 in data set [1] (373.15 K).
The corresponding values for `C1CCCCCCC1` [cyclooctane] + CCCCCCCCCCCCCC[P+](CCCCCC)(CCCCCC)CCCCCC.O=S(=O)([N-]S(=O)(=O)C(F)(F)F)C(F)(F)F are 0.963 ± 0.07, 0.998 ± 0.072, 1.07 ± 0.078 and 1.12 ± 0.082.
The corresponding values for `C#CCCCC` [1-hexyne] + CCCCCCCCCCCCCC[P+](CCCCCC)(CCCCCC)CCCCCC.O=S(=O)([N-]S(=O)(=O)C(F)(F)F)C(F)(F)F are 0.693 ± 0.053, 0.709 ± 0.054, 0.72 ± 0.054 and 0.732 ± 0.055.
Take `CCCCC` [pentane] + CCCCCCCCCCCCCC[P+](CCCCCC)(CCCCCC)CCCCCC.O=S(=O)([N-]S(=O)(=O)C(F)(F)F)C(F)(F)F: the activity coefficient in data set [1] (313.15 K) stood at 0.96 ± 0.07; in data set [1] (333.15 K), 0.978 ± 0.071; in data set [1] (353.15 K), 0.99 ± 0.072; in data set [1] (373.15 K) it was 1 ± 0.072.
On the same counts, the results for `CCCCCCCC` [octane] + CCCCCCCCCCCCCC[P+](CCCCCC)(CCCCCC)CCCCCC.O=S(=O)([N-]S(=O)(=O)C(F)(F)F)C(F)(F)F are 1.4 ± 0.1, 1.44 ± 0.11, 1.46 ± 0.11 and 1.49 ± 0.11.
Consider `C1CCCCC1` [cyclohexane] + CCCCCCCCCCCCCC[P+](CCCCCC)(CCCCCC)CCCCCC.O=S(=O)([N-]S(=O)(=O)C(F)(F)F)C(F)(F)F, for which the activity coefficient in data set [1] (313.15 K) came to 0.795 ± 0.059; in data set [1] (333.15 K), 0.797 ± 0.059; in data set [1] (353.15 K), 0.798 ± 0.059; in data set [1] (373.15 K) it was 0.8 ± 0.059.
The term mass density denotes mass per unit of volume. Regarding `CCCCCCCCCCCCCC[P+](CCCCCC)(CCCCCC)CCCCCC.O=S(=O)([N-]S(=O)(=O)C(F)(F)F)C(F)(F)F`, the mass density in data set [2] is reported as 1068.87 ± 8.6 kg/m3.
With `CCCO` [propan-1-ol] + CCCCCCCCCCCCCC[P+](CCCCCC)(CCCCCC)CCCCCC.O=S(=O)([N-]S(=O)(=O)C(F)(F)F)C(F)(F)F, the activity coefficient in data set [1] (313.15 K) came out at 1.28 ± 0.095; in data set [1] (333.15 K) it was 1.15 ± 0.084; in data set [1] (353.15 K), 1.07 ± 0.078; in data set [1] (373.15 K), 0.953 ± 0.069.
On to `c1ccccc1` [benzene] + CCCCCCCCCCCCCC[P+](CCCCCC)(CCCCCC)CCCCCC.O=S(=O)([N-]S(=O)(=O)C(F)(F)F)C(F)(F)F, for which the activity coefficient in data set [1] (313.15 K) is 0.391 ± 0.036; in data set [1] (333.15 K) it was 0.405 ± 0.037; in data set [1] (353.15 K), 0.417 ± 0.038; in data set [1] (373.15 K) it was 0.437 ± 0.039.
On the same counts, the results for `C#CCCCCC` [1-heptyne] + CCCCCCCCCCCCCC[P+](CCCCCC)(CCCCCC)CCCCCC.O=S(=O)([N-]S(=O)(=O)C(F)(F)F)C(F)(F)F are 0.726 ± 0.055, 0.749 ± 0.056, 0.762 ± 0.057 and 0.782 ± 0.058.
Turning to `CCC(C)=O` [butanone] + CCCCCCCCCCCCCC[P+](CCCCCC)(CCCCCC)CCCCCC.O=S(=O)([N-]S(=O)(=O)C(F)(F)F)C(F)(F)F, the activity coefficient in data set [1] (313.15 K) turned out to be 0.321 ± 0.034; in data set [1] (333.15 K), 0.309 ± 0.033; in data set [1] (353.15 K) it was 0.324 ± 0.034; in data set [1] (373.15 K) it was 0.331 ± 0.034.
`C#CCCCCCCC` [1-nonyne] + CCCCCCCCCCCCCC[P+](CCCCCC)(CCCCCC)CCCCCC.O=S(=O)([N-]S(=O)(=O)C(F)(F)F)C(F)(F)F: the activity coefficient in data set [1] (313.15 K) turned out to be 0.853 ± 0.063; in data set [1] (333.15 K), 0.915 ± 0.067; in data set [1] (353.15 K) it was 0.956 ± 0.069; in data set [1] (373.15 K), 0.979 ± 0.071.
On the same counts, the results for `CC(C)=O` [acetone] + CCCCCCCCCCCCCC[P+](CCCCCC)(CCCCCC)CCCCCC.O=S(=O)([N-]S(=O)(=O)C(F)(F)F)C(F)(F)F are 0.297 ± 0.033, 0.327 ± 0.034, 0.332 ± 0.034 and 0.334 ± 0.034.
`CO` [methanol] + CCCCCCCCCCCCCC[P+](CCCCCC)(CCCCCC)CCCCCC.O=S(=O)([N-]S(=O)(=O)C(F)(F)F)C(F)(F)F: the activity coefficient stood at 1.08 ± 0.079 in data set [1] (313.15 K), 1.03 ± 0.074 in data set [1] (333.15 K), 0.922 ± 0.067 in data set [1] (353.15 K) and 0.863 ± 0.063 in data set [1] (373.15 K).
On the same counts, the results for `C=CCCCC` [hex-1-ene] + CCCCCCCCCCCCCC[P+](CCCCCC)(CCCCCC)CCCCCC.O=S(=O)([N-]S(=O)(=O)C(F)(F)F)C(F)(F)F are 0.907 ± 0.066, 0.921 ± 0.067, 0.93 ± 0.068 and 0.942 ± 0.068.
The corresponding values for `Cc1ccccc1` [toluene] + CCCCCCCCCCCCCC[P+](CCCCCC)(CCCCCC)CCCCCC.O=S(=O)([N-]S(=O)(=O)C(F)(F)F)C(F)(F)F are 0.452 ± 0.039, 0.472 ± 0.04, 0.486 ± 0.041 and 0.51 ± 0.042.
On the same counts, the results for `CCCCCC` [hexane] + CCCCCCCCCCCCCC[P+](CCCCCC)(CCCCCC)CCCCCC.O=S(=O)([N-]S(=O)(=O)C(F)(F)F)C(F)(F)F are 1.1 ± 0.08, 1.11 ± 0.081, 1.12 ± 0.082 and 1.13 ± 0.083.
On to `C=CCCC` [1-pentene] + CCCCCCCCCCCCCC[P+](CCCCCC)(CCCCCC)CCCCCC.O=S(=O)([N-]S(=O)(=O)C(F)(F)F)C(F)(F)F, for which the activity coefficient in data set [1] (313.15 K) came to 0.806 ± 0.06; in data set [1] (333.15 K) it was 0.824 ± 0.061; in data set [1] (353.15 K), 0.842 ± 0.062; in data set [1] (373.15 K), 0.85 ± 0.063.
On the same counts, the results for `CCCCCCCCC` [nonane] + CCCCCCCCCCCCCC[P+](CCCCCC)(CCCCCC)CCCCCC.O=S(=O)([N-]S(=O)(=O)C(F)(F)F)C(F)(F)F are 1.6 ± 0.12, 1.67 ± 0.13, 1.77 ± 0.14 and 1.87 ± 0.14.
Turning to `C#CCCCCCC` [1-octyne] + CCCCCCCCCCCCCC[P+](CCCCCC)(CCCCCC)CCCCCC.O=S(=O)([N-]S(=O)(=O)C(F)(F)F)C(F)(F)F, the activity coefficient in data set [1] (313.15 K) was determined as 0.836 ± 0.062; in data set [1] (333.15 K), 0.865 ± 0.063; in data set [1] (353.15 K), 0.886 ± 0.065; in data set [1] (373.15 K), 0.899 ± 0.066.
On the same counts, the results for `C#CCCC` [1-pentyne] + CCCCCCCCCCCCCC[P+](CCCCCC)(CCCCCC)CCCCCC.O=S(=O)([N-]S(=O)(=O)C(F)(F)F)C(F)(F)F are 0.613 ± 0.048, 0.636 ± 0.049, 0.663 ± 0.051 and 0.699 ± 0.053.
The corresponding values for `C=CCCCCC` [1-heptene] + CCCCCCCCCCCCCC[P+](CCCCCC)(CCCCCC)CCCCCC.O=S(=O)([N-]S(=O)(=O)C(F)(F)F)C(F)(F)F are 1.03 ± 0.075, 1.06 ± 0.077, 1.1 ± 0.08 and 1.12 ± 0.082.
On the same counts, the results for `C1CCCCCC1` [cycloheptane] + CCCCCCCCCCCCCC[P+](CCCCCC)(CCCCCC)CCCCCC.O=S(=O)([N-]S(=O)(=O)C(F)(F)F)C(F)(F)F are 0.87 ± 0.064, 0.881 ± 0.065, 0.891 ± 0.065 and 0.905 ± 0.066.
